In patent publication US6022851A, “Lantibiotic related to actagardine, and processes for the preparation and use thereof” (priority 1997, dated 2000):
Like-named read-outs stand apart in the source and are kept apart here.

Key:
Stability in solution = format: physicochemical
Solubility = format: physicochemical; settings: in methanol and water
S. aureus Exp54146 = format: cell-based; settings: incubation time 24 h
From the text: (§1) Tables 4 to 6 show the in-vitro antibacterial activity (MIC values[μg/ml]) of the actagardine (Acta) and of the compounds according to the invention.

S. pyogenes A561 = format: cell-based; settings: incubation time 24 h
From the text: as §1

S. aureus SG511 = format: cell-based; settings: incubation time 24 h
From the text: as §1

E. Coli = format: cell-based; settings: incubation time 24 h
From the text: as §1

E. faecalis 02D2HM9 = test: in-vitro antibacterial activity (MIC), incubation time 18 h; format: cell-based; settings: incubation time 18 h
From the text: as §1

S. epidermidis 012GO20 = test: as above; format: cell-based; settings: incubation time 18 h
From the text: as §1

S. pneumoniae 030BI2 = test: as above; format: cell-based; settings: incubation time 18 h
From the text: as §1

E. faecalis 02D2DU18 = test: as above; format: cell-based; settings: incubation time 18 h
From the text: as §1

S. pyogenes 02A1UC1 = test: as above; format: cell-based; settings: incubation time 18 h
From the text: as §1

E. faecalis 02D2UC5 = test: as above; format: cell-based; settings: incubation time 18 h
From the text: as §1

S. aureus 011DU5 = test: as above; format: cell-based; settings: incubation time 18 h
From the text: as §1

S. pyogenes O2A1SJ1 = test: as above; format: cell-based; settings: incubation time 18 h
From the text: as §1

S. epidermidis 012GO42 = test: as above; format: cell-based; settings: incubation time 18 h
From the text: as §1

E. faecalis 02D2HT10 = test: as above; format: cell-based; settings: incubation time 18 h
From the text: as §1

S. aureus 0121O64 = test: as above; format: cell-based; settings: incubation time 18 h
From the text: as §1

Strepto gr. G 02G0CB2 = test: as above; format: cell-based; settings: incubation time 18 h
From the text: as §1

[1] = system: Staph. coag. negative 012HT5; test: as above; format: cell-based; settings: incubation time 18 h
From the text: as §1

S. aureus 011HT1 = test: as above; format: cell-based; settings: incubation time 18 h
From the text: as §1

S. aureus 011HT3 = test: as above; format: cell-based; settings: incubation time 18 h
From the text: as §1

S. mitis 02mitGR16 = test: as above; format: cell-based; settings: incubation time 18 h
From the text: as §1

S. milleri 02milGR12 = test: as above; format: cell-based; settings: incubation time 18 h
From the text: as §1

S. pyogenes 02A1FI6 = test: as above; format: cell-based; settings: incubation time 18 h
From the text: as §1

S. aureus 011HT18 = test: as above; format: cell-based; settings: incubation time 18 h
From the text: as §1

## CC[C@H](C)[C@@H]1NC(=O)C2NC(=O)[C@H](CC(C)C)NC(=O)C(NC(=O)C3CSCC(NC(=O)[C@H](C)N)C(=O)N[C@@H](CO)C(=O)NCC(=O)N[C@@H](Cc4c[nH]c5ccccc45)C(=O)N[C@@H](C(C)C)C(=O)N3)C(C)SCC(NC(=O)[C@H](CCC(=O)O)NC1=O)C(=O)NCC(=O)NC1C(=O)N[C@@H](C(C)C)C(=O)N[C@@H]([C@@H](C)CC)C(=O)NC(CSC2C)C(=O)N[C@@H](C)C(=O)NC(C(=O)O)C[S+]([O-])C1C (stereo partly shown) [Ala(0)-actagardine]
Tolerability / toxicity
  cytotoxic actions or other toxicities: not observed
Tolerability / toxicity; at the active concentration and above
  tolerability: good
Stability in solution; in neutral and mildly alkaline medium
  stability: Stable
Stability in solution; in strongly acidic and strongly alkaline solution
  stability: unstable
Solubility
  solubility: soluble

## di-Boc-Lys(0)-actagardine [Boc--Lys--Acta]
S. aureus Exp54146
  MIC values: 10 µg/mL
S. pyogenes A561
  MIC values: <= 0.04 μg/ml
S. aureus SG511; S. aureus SG511 + 10% serum
  MIC values: 10 µg/mL
S. aureus SG511; S. aureus SG511
  MIC values: 2.5 µg/mL
E. Coli
  MIC values: > 40 µg/mL
E. faecalis 02D2HM9
  MIC values: > 40 µg/mL
S. epidermidis 012GO20
  MIC values: > 40 µg/mL
S. pneumoniae 030BI2
  MIC values: 1.2 µg/mL
E. faecalis 02D2DU18
  MIC values: 10 µg/mL
S. pyogenes 02A1UC1
  MIC values: <= 0.04 μg/ml
E. faecalis 02D2UC5
  MIC values: 40 µg/mL
S. aureus 011DU5
  MIC values: 40 µg/mL
S. pyogenes O2A1SJ1
  MIC values: 0.08 µg/mL
S. epidermidis 012GO42
  MIC values: > 40 µg/mL
E. faecalis 02D2HT10
  MIC values: > 40 µg/mL
S. aureus 0121O64
  MIC values: > 40 µg/mL
Strepto gr. G 02G0CB2
  MIC values: 2.5 µg/mL
[1]
  MIC values: > 40 µg/mL
S. aureus 011HT1
  MIC values: 10 µg/mL
S. aureus 011HT3; S. aureus 011HT3 + 10% serum
  MIC values: 20 µg/mL
S. aureus 011HT3; S. aureus 011HT3 + 50% serum
  MIC values: 40 µg/mL
S. aureus 011HT3; S. aureus 011HT3
  MIC values: 10 µg/mL
S. mitis 02mitGR16
  MIC values: 5 µg/mL
S. milleri 02milGR12
  MIC values: 5 µg/mL
S. pyogenes 02A1FI6
  MIC values: <= 0.04 μg/ml
S. aureus 011HT18
  MIC values: > 40 µg/mL
